Experiment [1] deals with T1, Inhibitor of nuclear factor kappa-B kinase subunit epsilon (Homo sapiens) (UniProt Q14164).
T1 sequence (whole entry): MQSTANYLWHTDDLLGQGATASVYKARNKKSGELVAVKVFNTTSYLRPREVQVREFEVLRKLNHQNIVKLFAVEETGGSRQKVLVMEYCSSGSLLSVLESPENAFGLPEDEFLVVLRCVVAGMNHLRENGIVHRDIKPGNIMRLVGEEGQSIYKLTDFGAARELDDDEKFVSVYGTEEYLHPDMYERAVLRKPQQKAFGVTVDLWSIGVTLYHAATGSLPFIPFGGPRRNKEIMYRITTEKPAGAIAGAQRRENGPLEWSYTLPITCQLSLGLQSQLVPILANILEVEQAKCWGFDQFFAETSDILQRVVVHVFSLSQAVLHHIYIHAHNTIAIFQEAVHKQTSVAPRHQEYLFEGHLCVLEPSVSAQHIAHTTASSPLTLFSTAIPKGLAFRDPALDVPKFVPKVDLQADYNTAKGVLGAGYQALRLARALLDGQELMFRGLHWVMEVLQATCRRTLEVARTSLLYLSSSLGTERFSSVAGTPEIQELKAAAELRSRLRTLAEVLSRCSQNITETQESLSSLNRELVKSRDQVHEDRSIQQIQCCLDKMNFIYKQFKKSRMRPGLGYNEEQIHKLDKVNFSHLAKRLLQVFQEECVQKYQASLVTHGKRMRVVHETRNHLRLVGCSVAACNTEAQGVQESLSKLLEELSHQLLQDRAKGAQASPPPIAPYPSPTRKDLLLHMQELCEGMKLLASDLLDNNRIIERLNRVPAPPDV
Put plainly: Selectivity interaction (Kinase panel (Z-LYTE Assay)) EUB0001632a IKBKE. To be noted: at 10 µM.

Experiment [2] deals with Histone-lysine N-methyltransferase, H3 lysine-36 specific (Homo sapiens) (UniProt Q96L73). The experiment in a line: Selectivity interaction (Methyltransferase screen (radiometric assays, panel of 8 PRMTs, 21 protein lysine methyltransferases, 3 DNA methyltransferases, and one RNA methyltransferase)) EUB0000271b NSD1.
Sequence of Histone-lysine N-methyltransferase, H3 lysine-36 specific (Homo sapiens) (Q96L73 whole entry): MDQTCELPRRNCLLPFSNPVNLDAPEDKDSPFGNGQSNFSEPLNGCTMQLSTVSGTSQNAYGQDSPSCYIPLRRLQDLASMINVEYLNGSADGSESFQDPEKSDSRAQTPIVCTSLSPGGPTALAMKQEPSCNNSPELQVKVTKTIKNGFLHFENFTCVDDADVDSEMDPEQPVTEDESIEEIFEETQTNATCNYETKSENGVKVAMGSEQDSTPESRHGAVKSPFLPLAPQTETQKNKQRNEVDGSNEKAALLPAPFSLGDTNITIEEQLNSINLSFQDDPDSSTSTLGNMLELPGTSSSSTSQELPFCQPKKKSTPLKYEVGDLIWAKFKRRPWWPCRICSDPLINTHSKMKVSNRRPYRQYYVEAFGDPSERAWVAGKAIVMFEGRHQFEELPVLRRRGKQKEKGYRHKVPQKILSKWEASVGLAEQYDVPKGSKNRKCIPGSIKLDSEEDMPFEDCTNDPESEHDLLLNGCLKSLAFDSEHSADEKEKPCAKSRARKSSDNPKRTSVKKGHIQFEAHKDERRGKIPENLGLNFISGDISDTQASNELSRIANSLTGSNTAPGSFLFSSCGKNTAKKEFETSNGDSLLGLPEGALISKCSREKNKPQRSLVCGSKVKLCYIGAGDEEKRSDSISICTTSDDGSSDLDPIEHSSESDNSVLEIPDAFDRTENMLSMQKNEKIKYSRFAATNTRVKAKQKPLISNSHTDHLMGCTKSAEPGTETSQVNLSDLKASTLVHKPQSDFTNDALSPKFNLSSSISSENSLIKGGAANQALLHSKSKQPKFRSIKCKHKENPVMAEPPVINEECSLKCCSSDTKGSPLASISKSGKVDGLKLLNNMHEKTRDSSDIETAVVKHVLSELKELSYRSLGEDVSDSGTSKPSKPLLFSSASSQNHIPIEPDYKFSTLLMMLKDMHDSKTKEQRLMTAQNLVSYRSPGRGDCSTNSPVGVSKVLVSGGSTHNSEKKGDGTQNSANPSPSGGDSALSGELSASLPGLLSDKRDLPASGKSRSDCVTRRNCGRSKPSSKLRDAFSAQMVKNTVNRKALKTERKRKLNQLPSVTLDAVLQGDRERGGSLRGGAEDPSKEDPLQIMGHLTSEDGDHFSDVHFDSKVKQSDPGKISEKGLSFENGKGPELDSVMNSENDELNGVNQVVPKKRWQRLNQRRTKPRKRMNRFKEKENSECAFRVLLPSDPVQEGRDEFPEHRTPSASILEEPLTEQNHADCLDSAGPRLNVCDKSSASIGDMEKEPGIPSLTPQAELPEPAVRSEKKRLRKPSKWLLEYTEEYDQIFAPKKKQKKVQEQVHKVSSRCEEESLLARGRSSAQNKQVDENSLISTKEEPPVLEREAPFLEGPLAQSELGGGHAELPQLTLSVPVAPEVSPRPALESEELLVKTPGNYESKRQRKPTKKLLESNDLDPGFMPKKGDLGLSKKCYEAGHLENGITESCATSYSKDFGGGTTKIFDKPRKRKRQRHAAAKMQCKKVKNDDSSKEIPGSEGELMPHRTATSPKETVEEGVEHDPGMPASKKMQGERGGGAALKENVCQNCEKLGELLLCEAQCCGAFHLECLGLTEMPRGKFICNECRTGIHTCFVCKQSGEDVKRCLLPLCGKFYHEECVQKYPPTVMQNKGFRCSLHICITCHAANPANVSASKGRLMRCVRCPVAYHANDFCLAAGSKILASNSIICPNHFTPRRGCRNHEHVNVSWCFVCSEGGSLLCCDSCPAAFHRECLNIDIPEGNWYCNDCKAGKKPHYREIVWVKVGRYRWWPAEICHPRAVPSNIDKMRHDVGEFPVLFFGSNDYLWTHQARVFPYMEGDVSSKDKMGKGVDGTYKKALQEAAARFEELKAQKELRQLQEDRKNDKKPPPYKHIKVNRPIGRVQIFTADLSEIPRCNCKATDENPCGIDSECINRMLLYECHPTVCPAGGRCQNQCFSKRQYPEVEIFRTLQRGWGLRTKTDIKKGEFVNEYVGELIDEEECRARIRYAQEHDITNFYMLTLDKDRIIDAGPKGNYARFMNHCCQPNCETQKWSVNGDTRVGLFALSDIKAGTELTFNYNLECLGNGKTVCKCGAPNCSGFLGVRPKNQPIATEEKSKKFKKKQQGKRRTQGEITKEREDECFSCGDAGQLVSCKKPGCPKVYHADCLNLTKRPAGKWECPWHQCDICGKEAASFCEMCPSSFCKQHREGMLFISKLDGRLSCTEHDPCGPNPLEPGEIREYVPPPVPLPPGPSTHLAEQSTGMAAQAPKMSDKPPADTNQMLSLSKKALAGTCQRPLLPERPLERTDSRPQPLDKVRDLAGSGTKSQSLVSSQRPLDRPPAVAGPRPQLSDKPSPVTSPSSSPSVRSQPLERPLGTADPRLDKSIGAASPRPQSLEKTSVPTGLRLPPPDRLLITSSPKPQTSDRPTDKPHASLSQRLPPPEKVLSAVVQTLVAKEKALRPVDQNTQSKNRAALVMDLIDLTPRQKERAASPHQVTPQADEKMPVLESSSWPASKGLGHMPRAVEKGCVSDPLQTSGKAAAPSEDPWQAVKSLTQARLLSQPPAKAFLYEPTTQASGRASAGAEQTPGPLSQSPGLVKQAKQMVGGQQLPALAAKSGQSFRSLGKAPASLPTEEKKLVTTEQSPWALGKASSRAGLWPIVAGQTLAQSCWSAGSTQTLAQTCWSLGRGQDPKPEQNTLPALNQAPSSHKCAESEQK
Experiment [3] concerns the target Insulin receptor (Homo sapiens, UniProt P06213). The conditions noted are these: at 10 µM.
The target of experiment [4] is T2, 5-hydroxytryptamine receptor 2C (Homo sapiens) (UniProt P28335).
T2 sequence (whole entry): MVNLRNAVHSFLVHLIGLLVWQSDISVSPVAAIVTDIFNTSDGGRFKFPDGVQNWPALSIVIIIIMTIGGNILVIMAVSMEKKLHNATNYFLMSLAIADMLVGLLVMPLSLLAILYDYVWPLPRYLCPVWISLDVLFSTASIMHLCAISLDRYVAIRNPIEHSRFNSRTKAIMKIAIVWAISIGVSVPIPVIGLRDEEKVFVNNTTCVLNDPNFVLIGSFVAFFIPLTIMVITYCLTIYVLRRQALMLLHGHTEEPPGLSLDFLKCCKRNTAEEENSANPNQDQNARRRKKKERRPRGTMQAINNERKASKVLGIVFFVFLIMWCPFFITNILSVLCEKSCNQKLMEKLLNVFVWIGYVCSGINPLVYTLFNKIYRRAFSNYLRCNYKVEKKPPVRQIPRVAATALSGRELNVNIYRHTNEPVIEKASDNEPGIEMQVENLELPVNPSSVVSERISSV
The experiment in a line: Selectivity interaction (Panel of kinases, GPCRs, ion channels and transporters (enzymatic assay)) EUB0000266bCl HTR2C.

Experiment [5] concerns the target T3, Serine/threonine-protein kinase Sgk3 (Homo sapiens) (UniProt Q96BR1).
T3 sequence (whole entry): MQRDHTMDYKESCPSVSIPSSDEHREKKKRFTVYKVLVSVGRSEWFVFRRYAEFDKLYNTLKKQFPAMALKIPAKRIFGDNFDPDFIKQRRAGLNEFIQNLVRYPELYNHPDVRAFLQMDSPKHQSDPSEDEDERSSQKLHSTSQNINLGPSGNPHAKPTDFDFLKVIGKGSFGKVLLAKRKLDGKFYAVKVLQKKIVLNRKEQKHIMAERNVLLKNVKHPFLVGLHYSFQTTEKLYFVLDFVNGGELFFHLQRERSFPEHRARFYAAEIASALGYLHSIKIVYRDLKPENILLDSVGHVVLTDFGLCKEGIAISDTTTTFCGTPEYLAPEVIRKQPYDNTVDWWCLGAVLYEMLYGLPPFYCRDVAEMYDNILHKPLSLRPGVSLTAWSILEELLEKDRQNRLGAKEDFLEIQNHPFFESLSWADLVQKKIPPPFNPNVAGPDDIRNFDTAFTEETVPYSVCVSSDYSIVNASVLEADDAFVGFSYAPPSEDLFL
The experiment in a line: Selectivity interaction (KinomeScan (DiscoverX)) EUB0001619a SGK3. The conditions noted are these: at 1 µM.

Experiment [6] has as its target Serine/threonine-protein kinase 38-like (Homo sapiens) (UniProt Q9Y2H1). Put plainly: Selectivity interaction (ActivX KiNativ screen (kinase selectivity in THP-1 cell lysates)) EUB0000639a STK38L. The class given is subcellular. To be noted: lysate, at 5 µM.
Experiment [7] concerns the target Mitogen-activated protein kinase 10 (Homo sapiens, UniProt P53779). The experiment in a line: Selectivity interaction (Kinase panel (DSF assay)) EUB0001559a MAPK10. Background: DSF heats the sample and reads unfolding from a dye or from intrinsic fluorescence.
Experiment [8] has as its target Phosphatidylinositol 4-phosphate 5-kinase type-1 alpha (Homo sapiens) (UniProt Q99755). Put plainly: Selectivity interaction (KinomeScan (DiscoverX)) EUB0001868a PIP5K1A. The conditions noted are these: at 1 µM.
For experiment [9], the target named is Ribosomal protein S6 kinase alpha-2 (Homo sapiens) (UniProt Q15349). The experiment in a line: Selectivity interaction (KinomeScan (DiscoverX)) EUB0000045b RPS6KA2.
Sequence of Ribosomal protein S6 kinase alpha-2 (Homo sapiens) (Q15349 whole entry): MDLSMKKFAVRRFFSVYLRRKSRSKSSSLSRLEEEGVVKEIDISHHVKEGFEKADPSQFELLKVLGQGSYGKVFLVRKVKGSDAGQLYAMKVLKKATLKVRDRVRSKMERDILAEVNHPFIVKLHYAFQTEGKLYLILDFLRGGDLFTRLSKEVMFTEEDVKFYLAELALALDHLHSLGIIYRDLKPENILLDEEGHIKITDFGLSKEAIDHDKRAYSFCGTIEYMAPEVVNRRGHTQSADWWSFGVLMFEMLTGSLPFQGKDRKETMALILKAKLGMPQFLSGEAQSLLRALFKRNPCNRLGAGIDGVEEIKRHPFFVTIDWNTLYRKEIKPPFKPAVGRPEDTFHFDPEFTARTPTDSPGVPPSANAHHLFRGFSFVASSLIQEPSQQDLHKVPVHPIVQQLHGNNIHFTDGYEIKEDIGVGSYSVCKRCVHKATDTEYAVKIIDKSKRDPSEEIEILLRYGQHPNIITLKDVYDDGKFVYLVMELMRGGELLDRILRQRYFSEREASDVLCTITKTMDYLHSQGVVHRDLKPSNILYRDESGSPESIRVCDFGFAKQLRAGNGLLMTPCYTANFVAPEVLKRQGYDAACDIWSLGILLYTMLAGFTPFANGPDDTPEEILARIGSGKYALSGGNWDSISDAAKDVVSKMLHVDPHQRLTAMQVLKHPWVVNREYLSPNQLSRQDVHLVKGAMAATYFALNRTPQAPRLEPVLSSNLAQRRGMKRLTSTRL

The values below come from ChEMBL document CHEMBL5465560, “Selectivity Literature for EUbOPEN Chemogenomic Library” (2024).

Sequence of Serine/threonine-protein kinase 38-like (Homo sapiens) (Q9Y2H1 2-464 limits assumed): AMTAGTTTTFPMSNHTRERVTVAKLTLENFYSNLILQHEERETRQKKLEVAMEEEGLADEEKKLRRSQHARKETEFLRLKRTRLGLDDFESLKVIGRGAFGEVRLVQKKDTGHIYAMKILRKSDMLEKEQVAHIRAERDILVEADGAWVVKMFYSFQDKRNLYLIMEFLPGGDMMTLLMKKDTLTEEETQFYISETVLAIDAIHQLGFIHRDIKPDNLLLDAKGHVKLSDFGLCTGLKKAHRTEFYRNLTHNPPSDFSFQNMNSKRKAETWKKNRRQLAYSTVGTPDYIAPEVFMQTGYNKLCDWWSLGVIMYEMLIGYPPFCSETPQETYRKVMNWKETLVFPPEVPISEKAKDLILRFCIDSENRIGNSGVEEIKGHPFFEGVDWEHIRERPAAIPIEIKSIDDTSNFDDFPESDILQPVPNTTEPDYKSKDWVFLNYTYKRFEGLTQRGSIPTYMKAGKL
Sequence of Phosphatidylinositol 4-phosphate 5-kinase type-1 alpha (Homo sapiens) (Q99755 whole entry): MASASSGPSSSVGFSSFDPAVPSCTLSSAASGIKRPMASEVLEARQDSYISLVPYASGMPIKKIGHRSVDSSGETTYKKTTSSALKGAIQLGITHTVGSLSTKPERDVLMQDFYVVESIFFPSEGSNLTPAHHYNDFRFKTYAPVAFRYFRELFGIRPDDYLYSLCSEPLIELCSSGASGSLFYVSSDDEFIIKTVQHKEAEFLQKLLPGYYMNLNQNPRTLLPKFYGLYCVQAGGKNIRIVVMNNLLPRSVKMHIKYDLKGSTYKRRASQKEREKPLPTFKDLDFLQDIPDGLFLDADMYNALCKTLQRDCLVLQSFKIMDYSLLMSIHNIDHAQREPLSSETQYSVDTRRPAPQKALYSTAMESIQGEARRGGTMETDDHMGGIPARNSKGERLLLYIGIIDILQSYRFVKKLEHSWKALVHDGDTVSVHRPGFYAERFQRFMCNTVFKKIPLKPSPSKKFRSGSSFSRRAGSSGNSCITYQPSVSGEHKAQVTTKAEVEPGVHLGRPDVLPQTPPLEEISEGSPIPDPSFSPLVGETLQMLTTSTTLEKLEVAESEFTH
Sequence of Mitogen-activated protein kinase 10 (P53779 whole entry): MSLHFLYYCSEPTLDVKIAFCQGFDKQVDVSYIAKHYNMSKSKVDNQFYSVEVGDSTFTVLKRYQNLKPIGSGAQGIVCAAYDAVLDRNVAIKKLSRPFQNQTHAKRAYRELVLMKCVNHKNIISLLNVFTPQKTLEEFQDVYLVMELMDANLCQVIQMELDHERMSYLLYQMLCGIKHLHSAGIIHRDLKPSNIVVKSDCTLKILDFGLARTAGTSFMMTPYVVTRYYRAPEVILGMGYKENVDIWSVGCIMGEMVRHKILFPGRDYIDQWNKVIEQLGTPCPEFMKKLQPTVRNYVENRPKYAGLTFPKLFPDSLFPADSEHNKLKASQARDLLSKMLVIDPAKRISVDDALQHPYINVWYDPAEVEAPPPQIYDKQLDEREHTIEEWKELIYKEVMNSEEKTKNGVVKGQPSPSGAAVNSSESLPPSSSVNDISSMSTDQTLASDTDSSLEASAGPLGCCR

In experiment [1], `Cn1cc(-n2cnc3c(NCc4nc5cc(Cl)c(Cl)cc5[nH]4)nc(N4CCOCC4)nc32)cn1` came in with a % of control of 2.49%. For `Cc1cc(C)cc([C@@H]2c3cc(C)ccc3NC(=O)CN2C(=O)c2ccc(Br)s2)c1`, the % of activity in experiment [2] (at 1 µM) stood at 97%; in experiment [2] (at 10 µM), 103%. In experiment [3], `Cc1cc([C@@H](C)Nc2ccccc2C(=O)O)c2nc(N3CCOCC3)cc(=O)n2c1` [AZD-6482] displayed a % of control of 100%.

In the case of `CCn1c(-c2nc3cc(C(=O)N4CCCC(N)C4)ccc3n2C)cc2ccccc21` (stereo unspecified), the pXC50 in [4] worked out at 4.7 M. Regarding `N#Cc1cccc(-c2c[nH]c3ncnc(N4CCOCC4)c23)c1`, the % of control in experiment [5] is 100%. In [6], `CC[C@@H]1[C@H](F)C(=O)N[C@@H]1COc1nccc2cc(C(N)=O)c(OC)cc12` [ZIMLOVISERTIB] registered a % of inhibition of 77.4%. For the compound `CN(C(=O)c1cnn2cccnc12)c1cc2c(cc1N1CCOCC1)C(=O)N(C[C@@H](F)C(C)(C)O)C2`, in [7], the dTM is -0.8 K. Take `Cc1cc(-c2ccnc(Nc3cnn(C)c3)n2)ccc1CNC(=O)N1CC(OC(C)C)C1`: the % of control in experiment [8] stood at 28%.

On to `C=CC(=O)Nc1cc(-n2c(=O)ccc3cnc4ccc(-c5ccc(NS(C)(=O)=O)cc5)cc4c32)ccc1C`, for which the % of control in experiment [9] (at 1 µM) stood at 100%; in experiment [9] (at 10 µM), 68%.
